The record followed here is US11433055B2, “Chromane monobactam compounds for the treatment of bacterial infections” (priority 2017, dated 2022).

Where a name gives a salt, the structure may show the parent alone.

Holding throughout (type): cell-based
What all share (details): lowest concentration inhibiting 95% of bacterial growth; in the presence of β lactamase inhibitor (BLi, Relebactam); 22 hours, 35±2° C., OD600

The test system of test [1] is Pseudomonas aeruginosa expressing AmpC (CL5701).
The test system of test [2] is Acinetobacter baumannii expressing TEM-1, AmpC, and Oxa-24/40 (CL6188).
The subject of test [3] is Escherichia coli expressing NDM-1 (CLB30016).
The test system of test [4] is Klebsiella pneumoniae expressing KPC-1 (CL6569).

Consider `CC1(C)[C@H](NC(=O)/C(=N\O[C@](C)(C(=O)O)[C@H]2CCc3cc(-c4cn(C[C@@H](O)CN)[n+](C[C@@H]5CCNC5)c4)ccc3O2)c2csc(N)n2)C(=O)N1OS(=O)(=O)O.O=C([O-])C(F)(F)F` [Example 40, Mono((S)-3-((Z)-2-(((S)-1-((R)-6-(1-((S)-3-amino-2-hydroxypropyl)-2-((R)-pyrrolidin-3-ylmethyl)-1H-pyrazol-2-ium-4-yl)chroman-2-yl)-1-carboxyethoxy)imino)-2-(2-aminothiazol-4-yl)acetamido)-2,2-dimethyl-4-oxoazetidin-1-yl sulfate) mono (2,2,2-trifluoroacetate)], for which, in test [1], the “PA_CL5701 MITC95” value stood at 0.78 µM. Also, the “AB_CL6188 MITC95” value in test [2] is 1.56 µM. The “EC_CLB30016 MITC95” value in test [3] is more than 50 µM. The “KP_CL6569 MITC95” value in test [4] is 0.1 µM.

In the case of `CC1(C)[C@H](NC(=O)/C(=N\O[C@](C)(C(=O)O)[C@H]2CCc3cc(-c4cn(C[C@@H](O)CN)[n+](C[C@H]5CCNC5)c4)ccc3O2)c2csc(N)n2)C(=O)N1OS(=O)(=O)[O-]` [Example 41, mono((S)-3-((Z)-2-(((S)-1-((R)-6-(1-((S)-3-amino-2-hydroxypropyl)-2-(((S)-pyrrolidin-1-ium-3-yl)methyl)-1H-pyrazol-2-ium-4-yl)chroman-2-yl)-1-carboxyethoxy)imino)-2-(2-aminothiazol-4-yl)acetamido)-2,2-dimethyl-4-oxoazetidin-1-yl sulfate) mono (2,2,2-trifluoroacetate)], the “PA_CL5701 MITC95” value in test [1] came to 0.78 µM. The “AB_CL6188 MITC95” value in test [2] is 1.56 µM. Moreover, the “EC_CLB30016 MITC95” value in test [3] was more than 50 µM. Also, in test [4], the “KP_CL6569 MITC95” value was found to be 0.1 µM.

Turning to “(S)-3-((Z)-2-(((S)-1-((R)-6-(1-(3-Aminopropyl)-2-(azetidin-3-ylmethyl)-1H-pyrazol-2-ium-4-yl)chroman-2-yl)-1-carboxyethoxy)imino)-2-(2-aminothiazol-4-yl)acetamido)-2,2-dimethyl-4-oxoazetidin-1-yl Sulfate [Example 3]”, the “PA_CL5701 MITC95” value in test [1] was found to be 6.25 µM. Also, the “AB_CL6188 MITC95” value in test [2] was found to be 6.25 µM. Also, the “EC_CLB30016 MITC95” value in test [3] is 3.13 µM. The “KP_CL6569 MITC95” value in test [4] was determined as 0.39 µM.
